The text below walks through data of US20250361268A1, “NOVEL ANTI-INFLAMMATORY PEPTIDE AND USE THEREOF” (NOVACELL TECHNOLOGY INC., priority 2022, published 2025).

Peptide text beside a SMILES is read from it.

One experiment concerns the target T1, FPR2 (Homo sapiens, UniProt P25090).
T1 construct: expressed in transfected cells; host or cells: RBL cells (RBL-FPR2)
T1 sequence (P25090 1-351): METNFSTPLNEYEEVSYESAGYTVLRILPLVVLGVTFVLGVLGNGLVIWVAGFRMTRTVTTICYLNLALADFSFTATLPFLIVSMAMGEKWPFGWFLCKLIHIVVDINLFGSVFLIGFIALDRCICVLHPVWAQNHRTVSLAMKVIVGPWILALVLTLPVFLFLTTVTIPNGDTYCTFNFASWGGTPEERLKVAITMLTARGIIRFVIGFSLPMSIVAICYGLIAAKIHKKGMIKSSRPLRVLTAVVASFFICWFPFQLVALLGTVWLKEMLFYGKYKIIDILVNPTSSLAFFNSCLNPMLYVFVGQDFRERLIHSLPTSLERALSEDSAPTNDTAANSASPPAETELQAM
The experiment is described as follows: Change in calcium activity by peptide (Fura-2) in RBL cells overexpressing FPR2. The settings on record: calcium activity (Fura-2), graded per Table 3, read-out: EC50 for [Ca^2+] FPR2. Type of experiment: cell-based. A digest of the protocol: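 Rat basophilic leukemia cells overexpressing FPR2 loaded with Fura-2 (37 °C 1 h, then RT 30 min dark); peptides (0.5 mM stocks in water or 50% DMSO) diluted in HBSS + 20 mM HEPES and added on a plate reader, intracellular Ca2+ change recorded.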

In the next experiment the target is T2, FPR1 (Homo sapiens, UniProt P21462).
T2 sequence (P21462 1-350): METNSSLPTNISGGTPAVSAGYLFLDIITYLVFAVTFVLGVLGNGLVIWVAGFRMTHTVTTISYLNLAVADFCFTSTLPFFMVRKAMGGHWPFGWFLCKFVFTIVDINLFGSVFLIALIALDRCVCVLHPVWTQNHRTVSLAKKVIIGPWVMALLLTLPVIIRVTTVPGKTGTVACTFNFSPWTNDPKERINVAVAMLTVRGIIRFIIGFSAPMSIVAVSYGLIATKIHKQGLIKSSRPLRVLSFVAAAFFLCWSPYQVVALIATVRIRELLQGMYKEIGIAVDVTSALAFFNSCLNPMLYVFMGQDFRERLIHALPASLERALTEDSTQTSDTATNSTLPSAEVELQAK
The experiment is described as follows: Change in calcium activity by peptide, FPR1 activation effect. Type of experiment: cell-based. As to conditions: calcium activity (Fura-2), graded per Table 3, read-out: EC50 for [Ca^2+] FPR1. A digest of the protocol: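 Cells plated at 3×10^5 per well the day before were loaded with Fura-2 for 1 h at 37 °C, then kept 30 min in the dark at room temperature. Peptide-evoked calcium changes were recorded on a FlexStation 3.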

Take `CSCC[C@@H](NC(=O)[C@@H]1CCCN1C(=O)[C@H](Cc1c[nH]c2ccccc12)NC(=O)[C@H](Cc1ccc(O)cc1)NC(=O)[C@H](CCCNC(=N)N)NC(=O)[C@H](Cc1c[nH]c2ccccc12)NC(=O)[C@H](CCCNC(=N)N)NC(C)=O)C(N)=O` [Peptide 117] (HELM PEPTIDE1{[ac].R.W.R.Y.W.P.[dM].[am]}$$$$V2.0): the figures for the EC50 on FPR2 and at FPR1 were below 10 nM and 101 to 1000 nM, respectively.
The like results for `CSCC[C@@H](NC(=O)[C@@H]1CCCN1C(=O)[C@H](Cc1c[nH]c2ccccc12)NC(=O)[C@H](Cc1ccc(O)cc1)NC(=O)[C@H](CCCNC(=N)N)NC(=O)[C@@H](N)Cc1c[nH]c2ccccc12)C(N)=O` [Peptide 118] (HELM PEPTIDE1{W.R.Y.W.P.[dM].[am]}$$$$V2.0) were, in that order, below 10 nM and 101 to 1000 nM.
The like results for `CSCC[C@H](NC(=O)[C@H](CCCNC(=N)N)NC(C)=O)C(=O)N[C@@H](CCCNC(=N)N)C(=O)N[C@@H](Cc1ccc(O)cc1)C(=O)N[C@@H](Cc1ccc(O)cc1)C(=O)N1CCC[C@H]1C(=O)N[C@H](CCSC)C(N)=O` [Peptide 119] (HELM PEPTIDE1{[ac].R.M.R.Y.Y.P.[dM].[am]}$$$$V2.0) were, in that order, below 10 nM and 101 to 1000 nM.
The like results for `CSCC[C@H](N)C(=O)N[C@@H](CCCNC(=N)N)C(=O)N[C@@H](Cc1ccc(O)cc1)C(=O)N[C@@H](Cc1ccc(O)cc1)C(=O)N1CCC[C@H]1C(=O)N[C@H](CCSC)C(N)=O` [Peptide 120] (HELM PEPTIDE1{M.R.Y.Y.P.[dM].[am]}$$$$V2.0) were, in that order, below 10 nM and 101 to 1000 nM.
For `CSCC[C@@H](NC(=O)[C@@H]1CCCN1C(=O)[C@H](Cc1ccc(O)cc1)NC(=O)[C@H](Cc1ccc(O)cc1)NC(=O)[C@H](CCCNC(=N)N)NC(=O)[C@H](Cc1c[nH]c2ccccc12)NC(=O)[C@H](CCCNC(=N)N)NC(C)=O)C(N)=O` [Peptide 121] (HELM PEPTIDE1{[ac].R.W.R.Y.Y.P.[dM].[am]}$$$$V2.0), the EC50 (usually the concentration giving half of the maximal effect) is below 10 nM at FPR2 and 101 to 1000 nM at FPR1.
On to `CSCC[C@@H](NC(=O)[C@@H]1CCCN1C(=O)[C@H](Cc1ccc(O)cc1)NC(=O)[C@H](Cc1ccc(O)cc1)NC(=O)[C@H](CCCNC(=N)N)NC(=O)[C@H](Cc1c[nH]c2ccccc12)NC(C)=O)C(N)=O` [Peptide 122] (HELM PEPTIDE1{[ac].W.R.Y.Y.P.[dM].[am]}$$$$V2.0), for which the EC50 was below 10 nM on FPR2 and 101 to 1000 nM on FPR1.
The like results for `CSCC[C@@H](NC(=O)[C@H](Cc1ccc(O)cc1)NC(=O)[C@H](Cc1ccc(O)cc1)NC(=O)[C@H](Cc1ccc(O)cc1)NC(=O)[C@H](CCCNC(=N)N)NC(=O)[C@H](Cc1c[nH]c2ccccc12)NC(=O)[C@@H](N)CCCNC(=N)N)C(N)=O` [Peptide 123] (HELM PEPTIDE1{R.W.R.Y.Y.Y.[dM].[am]}$$$$V2.0) were, in that order, below 10 nM and above 10000 nM.
As to `CSCC[C@@H](NC(=O)[C@H](Cc1ccc(O)cc1)NC(=O)[C@H](Cc1ccc(O)cc1)NC(=O)[C@H](Cc1ccc(O)cc1)NC(=O)[C@H](CCCNC(=N)N)NC(=O)[C@H](Cc1c[nH]c2ccccc12)NC(C)=O)C(N)=O` [Peptide 124] (HELM PEPTIDE1{[ac].W.R.Y.Y.Y.[dM].[am]}$$$$V2.0), the EC50 on FPR2 fell in the range of 11 to 100 nM; at FPR1, 1000 to 10000 nM.
For `CSCC[C@H](NC(=O)[C@H](CCCNC(=N)N)NC(C)=O)C(=O)N[C@@H](CCCNC(=N)N)C(=O)N[C@@H](Cc1ccc(O)cc1)C(=O)N[C@@H](Cc1ccc(O)cc1)C(=O)N[C@@H](Cc1ccc(O)cc1)C(=O)N[C@H](CCSC)C(N)=O` [Peptide 125] (HELM PEPTIDE1{[ac].R.M.R.Y.Y.Y.[dM].[am]}$$$$V2.0), in that order: below 10 nM and above 10000 nM.
For `CSCC[C@H](NC(C)=O)C(=O)N[C@@H](CCCNC(=N)N)C(=O)N[C@@H](Cc1ccc(O)cc1)C(=O)N[C@@H](Cc1ccc(O)cc1)C(=O)N[C@@H](Cc1ccc(O)cc1)C(=O)N[C@H](CCSC)C(N)=O` [Peptide 126] (HELM PEPTIDE1{[ac].M.R.Y.Y.Y.[dM].[am]}$$$$V2.0), in that order: 11 to 100 nM and above 10000 nM.
For `CCCC(=O)N[C@@H](Cc1c[nH]cn1)C(=O)N[C@@H](CCSC)C(=O)N[C@@H](CCCCN)C(=O)N[C@@H](Cc1ccc(O)cc1)C(=O)N[C@@H](Cc1ccc(O)cc1)C(=O)N[C@@H](Cc1ccc(O)cc1)C(=O)N[C@H](CCSC)C(N)=O` [Peptide 127] (HELM PEPTIDE1{[CCCC(=O)[*:2]].H.M.K.Y.Y.Y.[dM].[am]}$$$$V2.0), in that order: below 10 nM and above 10000 nM.
Consider `CC[C@H](C)[C@H](N)C(=O)N[C@@H](CCCCN)C(=O)N[C@@H](Cc1ccccc1)C(=O)N[C@@H](Cc1c[nH]c2ccccc12)C(=O)N[C@@H](Cc1ccc(O)cc1)C(=O)N[C@H](CCSC)C(N)=O` [Peptide 128] (HELM PEPTIDE1{I.K.F.W.Y.[dM].[am]}$$$$V2.0), for which the EC50 on FPR2 is 11 to 100 nM; at FPR1 it was above 10000 nM.
For `CC[C@H](C)[C@H](N)C(=O)N[C@@H](CCCCN)C(=O)N[C@@H](Cc1ccccc1)C(=O)N[C@@H](Cc1c[nH]c2ccccc12)C(=O)N[C@@H](CCSC)C(=O)N[C@H](CCSC)C(N)=O` [Peptide 129] (HELM PEPTIDE1{I.K.F.W.M.[dM].[am]}$$$$V2.0), in that order: 11 to 100 nM and above 10000 nM.
For `CC[C@H](C)[C@H](N)C(=O)N[C@@H](CCCCN)C(=O)N[C@@H](CCCCN)C(=O)N[C@@H](Cc1c[nH]c2ccccc12)C(=O)N[C@@H](CCSC)C(=O)N[C@H](CCSC)C(N)=O` [Peptide 130] (HELM PEPTIDE1{I.K.K.W.M.[dM].[am]}$$$$V2.0), in that order: 11 to 100 nM and above 10000 nM.
Consider `CC[C@H](C)[C@H](N)C(=O)N[C@@H](CCCCN)C(=O)N[C@@H](Cc1ccccc1)C(=O)N[C@@H](CCCCN)C(=O)N[C@@H](Cc1ccc(O)cc1)C(=O)N[C@H](CCSC)C(N)=O` [Peptide 131] (HELM PEPTIDE1{I.K.F.K.Y.[dM].[am]}$$$$V2.0), for which the EC50 is 11 to 100 nM on FPR2 and above 10000 nM on FPR1.
For the compound `CC[C@H](C)[C@H](N)C(=O)N[C@@H](CCCCN)C(=O)N[C@@H](Cc1ccccc1)C(=O)N[C@@H](CCCCN)C(=O)N[C@H](C(=O)N[C@H](CCSC)C(N)=O)C(C)C` [Peptide 132] (HELM PEPTIDE1{I.K.F.K.V.[dM].[am]}$$$$V2.0), the EC50 on FPR2 was 11 to 100 nM; on FPR1 it was above 10000 nM.
For `CC[C@H](C)[C@H](N)C(=O)N[C@@H](CCCCN)C(=O)N[C@@H](Cc1ccccc1)C(=O)N[C@@H](CCCCN)C(=O)N1CCC[C@H]1C(=O)N[C@H](CCSC)C(N)=O` [Peptide 133] (HELM PEPTIDE1{I.K.F.K.P.[dM].[am]}$$$$V2.0), in that order: below 10 nM and above 10000 nM.
The like results for `CC[C@H](C)[C@H](N)C(=O)N[C@@H](CCCCN)C(=O)N[C@@H](Cc1ccc(O)cc1)C(=O)N[C@@H](CCCCN)C(=O)N[C@H](C(=O)N[C@H](CCSC)C(N)=O)C(C)C` [Peptide 134] (HELM PEPTIDE1{I.K.Y.K.V.[dM].[am]}$$$$V2.0) were, in that order, below 10 nM and above 10000 nM.
As to `CC[C@H](C)[C@H](NC(C)=O)C(=O)N[C@@H](CCCCN)C(=O)N[C@@H](Cc1ccc(O)cc1)C(=O)N[C@@H](CCCCN)C(=O)N[C@H](C(=O)N[C@H](CCSC)C(N)=O)C(C)C` [Peptide 135] (HELM PEPTIDE1{[ac].I.K.Y.K.V.[dM].[am]}$$$$V2.0), the figures for the EC50 at FPR2 and at FPR1 were below 10 nM and above 10000 nM, respectively.
Take `CCCC(=O)N[C@H](C(=O)N[C@@H](CCCCN)C(=O)N[C@@H](Cc1ccc(O)cc1)C(=O)N[C@@H](CCCCN)C(=O)N[C@H](C(=O)N[C@H](CCSC)C(N)=O)C(C)C)[C@@H](C)CC` [Peptide 136] (HELM PEPTIDE1{[CCCC(=O)[*:2]].I.K.Y.K.V.[dM].[am]}$$$$V2.0): the concentration for a half-maximal effect (EC50) at FPR2 is below 10 nM; at FPR1, above 10000 nM.
The like results for `CCCCCCCC(=O)N[C@H](C(=O)N[C@@H](CCCCN)C(=O)N[C@@H](Cc1ccc(O)cc1)C(=O)N[C@@H](CCCCN)C(=O)N[C@H](C(=O)N[C@H](CCSC)C(N)=O)C(C)C)[C@@H](C)CC` [Peptide 137] (HELM PEPTIDE1{[CCCCCCCC(=O)[*:2]].I.K.Y.K.V.[dM].[am]}$$$$V2.0) were, in that order, below 10 nM and 1000 to 10000 nM.
Consider `CSCC[C@@H](NC(=O)[C@@H](NC(=O)[C@H](CCCCN)NC(=O)[C@H](Cc1ccc(O)cc1)NC(=O)[C@H](CCCCN)NC(=O)[C@@H]1CCCN1)C(C)C)C(N)=O` [Peptide 138] (HELM PEPTIDE1{P.K.Y.K.V.[dM].[am]}$$$$V2.0), for which the EC50 is below 10 nM on FPR2 and above 10000 nM on FPR1.
